Laboratory results from patent US4552765A, “Aletheine derivatives” (Santen Pharmaceutical Co., Ltd., priority 1982, dated 1985).

Test system: CCl4-induced liver damage
Test: effect on CCl4-induced liver damage in rats (serum transaminase s-GOT and s-GPT)
Type: in vivo, Male wistar rats
Conditions: for serum transaminase s-GPT / serum transaminase s-GOT / s-GPT (inhibitory %) / s-GOT (inhibitory %): 300 mg/Kg orally, 60 min before CCl4 0.25 ml/Kg i.p., 24 h after CCl4; for serum transaminase s-GPT / serum transaminase s-GOT: mean ± standard deviation; for effect on liver damage: result in words
Description: Generally, the effect of a certain compound on liver damage is examined by administering it to experimental animals before a liver damage inducer such as carbon tetrachloride, thioacetamide, bromobenzene, paracetamol, D-galactosamine, etc. Carbon tetrachloride (CCl4)-induced liver damage is commonly used as the model. The mechanism to induce liver damage is presumed as follows (Biochemical Pharmacology 21, 49 (1972), ibid., 25, 2163 (1976)). In this invention, the effect of the compounds were examined against CCl4 -induced liver damage using serum transaminase activities (s-GOT and s-GPT) as a parameter. Male wistar rats (6 animals per group), weighing about 170-200 g, fasted for 17 hours, were used in the experiments. Test compounds were given orally at a dose of 300 mg/Kg, and 60 minutes later CCl4 was administered intraperitoneally at a dose of 0.25 ml/Kg (5 ml/Kg as a 5%(v/v)solution in olive oil). As the control, olive oil only was given intraperitoneally at a dose of 5 ml/Kg. All animals were killed 24 hours after CCl4 administration and their s-GOT and s-GPT activities were determined.

[1] = Table I, vs control 11460 ± 1490
[2] = Table II, vs control 6400 ± 2590
[3] = Table II, vs control 13950 ± 4030

CC(=O)SCCNC(=O)CCNC(=O)OCc1ccccc1 [compound No. 1, N-(2-Acetylthioethyl)-3-(benzyloxycarbonylamino)propionamide]
serum transaminase s-GPT (Table I, control 5100 ± 405): 2590 ± 731 Karmen unit/ml | serum transaminase s-GOT (Table I, control 11460 ± 1490): 5250 ± 1330 Karmen unit/ml | s-GPT (inhibitory %) (Table I, vs control 5100 ± 405): 49% | s-GOT (inhibitory %) [1]: 54%

CCC(=O)SCCNC(=O)CCNC(=O)OCc1ccccc1 [compound No. 2, 3-(Benzyloxycarbonylamino)-N-(2-propionylthioethyl)-propionamide]
serum transaminase s-GPT (Table I, control 5100 ± 405): 1720 ± 613 Karmen unit/ml | serum transaminase s-GOT (Table I, control 11460 ± 1490): 3550 ± 1150 Karmen unit/ml | s-GPT (inhibitory %) (Table I, vs control 5100 ± 405): 66% | s-GOT (inhibitory %) [1]: 69%

O=C(CCNC(=O)c1ccccc1)NCCSC(=O)c1ccccc1 [compound No. 3, 3-Benzoylamino-N-(2-benzoylthioethyl)propionamide]
serum transaminase s-GPT (Table I, control 5100 ± 405): 2440 ± 960 Karmen unit/ml | serum transaminase s-GOT (Table I, control 11460 ± 1490): 6150 ± 2990 Karmen unit/ml | s-GPT (inhibitory %) (Table I, vs control 5100 ± 405): 52% | s-GOT (inhibitory %) [1]: 46%

Cl.NCCC(=O)NCCS [compound No. 4, 3-amino-N-(2-mercaptoethyl)propionamide hydrochloride]
serum transaminase s-GPT (Table II, control 6400 ± 2590): 1990 ± 1010 Karmen unit/ml | serum transaminase s-GOT (Table II, control 13950 ± 4030): 4690 ± 2490 Karmen unit/ml | s-GPT (inhibitory %) [2]: 69% | s-GOT (inhibitory %) [3]: 67%

O=C(CCNC(=O)OCc1ccccc1)NCCS [compound No. 5, 3-(benzyloxycarbonylamino)-N-(2-mercaptoethyl)propionamide]
serum transaminase s-GPT (Table II, control 6400 ± 2590): 1900 ± 1640 Karmen unit/ml | serum transaminase s-GOT (Table II, control 13950 ± 4030): 4450 ± 4430 Karmen unit/ml | s-GPT (inhibitory %) [2]: 71% | s-GOT (inhibitory %) [3]: 69% | effect on liver damage: superior effect on liver-damage

CC(=O)NCCC(=O)NCCSC(C)=O [compound No. 6, 3acetylamino-N--(2acetylthioethyl)propionamide]
serum transaminase s-GPT (Table II, control 6400 ± 2590): 1730 ± 800 Karmen unit/ml | serum transaminase s-GOT (Table II, control 13950 ± 4030): 3370 ± 1360 Karmen unit/ml | s-GPT (inhibitory %) [2]: 73% | s-GOT (inhibitory %) [3]: 76% | effect on liver damage: superior effect on liver-damage

NCCC(=O)NCCS [β-aletheine, N-β-Alanyl-2-mercaptoethylamine]
effect on liver damage: excellent suppressive effect on liver damage
